The values that follow come from US10760052B2, “Method of inhibiting tau phosphorylation” (priority 2012, dated 2020).

Assay [1] relates to NMDAR. It counts as cell-based, rat. Particulars: slice cultures, 0.1 μM Aβ42.
Another assay deals with FLNA-α7nAChR association. Put plainly: FLNA association with α7nAChR in organotypic frontocortical slice cultures. It counts as cell-based, rat. Particulars: 100 nM Aβ42, 16 hours, compound added simultaneously. On the procedure: (§1) Tissue was harvested and solubilized, and a specific antibody against FLNA was used to immunoprecipitate FLNA and associated proteins. The FLNA immunoprecipitate was size-fractionated using SDS-PAGE, transferred and probed with specific antibodies directed against each of the following receptors: α7nAChR, TLR4, IR and MOR.
(§2) Rat brain slice organotypic culture methods were modified from those published previously. [Adamchik et al., Brain Res Brain Res Protoc 5:153-158 (2000).] FCX slices ([…]) were transferred to sterile, porous Millicell-CM inserts (0.4 μm). Each culture insert unit contained two brain slices and was placed into individual wells of a 12-well culture tray in 2 ml medium: 50% MEM with Earl's salts, 2 mM L-glutamine, 25% Earl's balanced salt solution, 6.5 g/l D-glucose, 20% fetal bovine serum (FBS), 5% horse serum, 25 mM HEPES buffer, pH 7.2, and […]. […]
(§3) The level of FLNA-associated α7nAChRs was determined using a co-immunoprecipitation/Western blotting method as described previously. […] The levels of FLNA-associated α7nAChR, TLR4, IR and MOR were assessed by Western blotting using specific antibodies directed against the respective proteins and the blot stripped and re-probed for FLNA for immunoprecipitation/loading control.

The test system of assay [2] is voltage-gated Ca2+ channel mediated Ca2+ influx. It counts as cell-based, rat. The settings on record: slice cultures.
Another assay relates to FLNA-TLR4 association. Put plainly: FLNA association with TLR4 in organotypic frontocortical slice cultures. It counts as cell-based, rat. The settings on record: 100 nM Aβ42, 16 hours, compound added simultaneously. Here is the method:
as §1, §2, §3

The test system of the next assay is α7nAChR. It counts as cell-based, rat.
In the next assay the test system is insulin receptor (IR). Put plainly: IR activation and signaling (pY1150/1151 IRβ, IRS-1) in slice cultures. It counts as cell-based, rat. The settings on record: insulin stimulation.
In another assay the test system is α7nAChR (Aβ42 binding). Put plainly: FITC-Aβ42 binding to biotinylated α7nAChR-containing SK-N-MC cell fragments. Further details: species or system human. Particulars: added simultaneously, 30° C., 30 minutes.
Assay [3] relates to tau (pSer202, pThr231, pThr181). Put plainly: Tau phosphorylation in organotypic frontocortical slice cultures. It counts as cell-based, rat. The settings on record: C0105 0.1, 1, 10 nM; C0114 1, 10 nM; simultaneous with Aβ42. Here is the method: On the day of study, medium was removed, the brain slices rinsed and incubated in 0.1% FBS-containing medium for 4 hours at 36° C. in 5% CO2.
The levels of phosphorylated tau (pSer202tau, pThr231tau and pThr181tau) as well as total tau precipitated (loading controls) are assessed by Western blotting using specific antibodies directed against each of the phosphoepitopes and the anti-tau, respectively.

The subject of assay [4] is NMDAR. Nature of the assay: Levels of signaling molecules associated with NMDAR (NR1) in slice cultures. It counts as cell-based, rat. The settings on record: 0.1 μM Aβ42.
Experimental: NMDAR activation and signaling was initiated by incubation of 6 slices with either 0.3 mM Mg^2+ containing KR (LMKR; basal) or LMKR containing 10 μM NMDA and 1 μM glycine at 37° C. for 30 minutes.
Ligand stimulation was terminated by the addition of 1 ml of ice-cold Ca^2+-free K-R containing mixture of protein phosphatase inhibitors, 0.5 mM EGTA and 0.1 mM EDTA. Brain slices were harvested by a brief centrifugation and were homogenized in 0.25 ml of ice-cold immunoprecipitation buffer. The homogenates were centrifuged at 1000×g for 5 minutes (4° C.) and the supernatant (post-mitochondrial fraction) was sonicated for 10 seconds on ice.
The resultant lysates were cleared by centrifugation at 50,000×g for 5 minutes and diluted with 0.75 ml of immunoprecipitation buffer. Protein concentrations were measured by Bradford method (Bio-Rad).
To determine the association of NMDARs with PSD-95, as well as NMDAR signaling, the levels of NMDAR subunits, PSD-95 and NMDAR-associated signaling molecules were measured in anti-NR1 immunoprecipitates. In these studies, brain slice lysates (100 μg) were immunoprecipitated overnight at 4° C. with 2 μg of immobilized anti-NR1 onto covalently conjugated protein A-agarose beads (Pierce-ENDOGEN). […]

Experimental for insulin receptor (IR): IR activation and signaling was initiated by incubation of 6 slices that were further chopped horizontally into 100 μm (100 μm×200 μm×3 mm) with either KR (basal) or KR containing 1 nM insulin at 37° C. for 30 minutes. […] Ligand stimulation was terminated by the addition of 1 ml of ice-cold Ca^2+-free K-R containing mixture of protein phosphatase inhibitors, 0.5 mM EGTA and 0.1 mM EDTA. Brain slices were harvested by a brief centrifugation and were homogenized in 0.25 ml of ice-cold immunoprecipitation buffer. The homogenates were centrifuged at 1000×g for 5 minutes (4° C.) and the supernatant (post-mitochondrial fraction) was sonicated for 10 seconds on ice. […] The resultant lysates were then cleared by centrifugation at 50,000×g for 5 minutes and diluted with 0.75 ml of immunoprecipitation buffer. Protein concentrations were measured by Bradford method (Bio-Rad).
In these experiments, brain slice lysates (100 μg) were immunoprecipitated overnight (about 18 hours) at 4° C. with 2 μg of immobilized anti-IRβ onto covalently conjugated protein A-agarose beads (Pierce-ENDOGEN). […]

Regarding `O=C1CNC2(CCNCC2)N1Cc1ccccc1` [Compound C0114], in the assay with NMDAR [1], the “Aβ42-induced impairment in NMDAR function (calcium influx after NMDA and glycine)” value is given as “significantly restoring NMDAR function”. In addition, the “Aβ42-induced increase in FLNA-α7nAChR association” value with FLNA-α7nAChR association is given as “reduced the FLNA-α7AchR association at both concentrations”. In [2], the “Aβ42-induced reduction of K+-evoked calcium influx” value is on record as “completely reversed”. Besides, the “Aβ42-induced increase in FLNA-TLR4 association” value in the assay on FLNA-TLR4 association was “reduced the FLNA-α7AchR association at both concentrations and the FLNA-TLR4 association at 10 nM”. Further, the “Aβ42-induced impairment in α7nAChR function (calcium influx after PNU282987)” value in the assay with α7nAChR is given as “restored functioning of this receptor”. Besides, the “Aβ42-induced IR signaling impairments (IRS-1 association, pY1150/1151 IRβ)” value in the assay with insulin receptor (IR) is reported as “normalized the signaling impairments”. Also, the figures for the “Inhibition of FITC-Aβ42 binding” value in the assay on α7nAChR (Aβ42 binding) (0.1 nM compound), with α7nAChR (Aβ42 binding) (1 nM compound) and in the assay on α7nAChR (Aβ42 binding) (10 nM compound) were 27.8±3.3%, 40.0±2.1% and 53.4±3.6%, respectively. In addition, the Aβ42-induced tau phosphorylation entry in assay [3] is reported as “reduced tau phosphorylation at all three phosphorylation sites”. Moreover, the “Levels of six signaling molecules associated with NR1 after NMDA and glycine” value in the assay on NMDAR [4] was “fully restored function”.
